These are literature values, as cited in patent publication EP0501250A1, “Fucose-marked batracylin derivatives” (BAYER AG, priority 1991, dated 1992).

Molecules are shown by their SMILES.

The subject of one series is Colon-38-Modell. The note with it: Colon-38-Modell an der Maus.
The conditions of series [1]: prior-art statement.

In the case of `Nc1ccc2c(c1)CN1C(=O)c3ccccc3C1=N2` [Batracylin], the Antitumorwirkung entry in the series with Colon-38-Modell is listed as “ausgezeichnete Antitumorwirkung”. For the same compound, the “Löslichkeit in wasserhaltigen Lösungsmitteln” value in series [1] is recorded as “geringe Löslichkeit”.
